Source: publication PMC6941357, “An in vitro toolbox to accelerate anti-malarial drug discovery and development” (Malaria Journal, 2020)

Legend:
Caco-2 cell monolayers = experiment: Bidirectional permeability across Caco-2 cell monolayers; settings: for efflux ratio: mean B–A/A–B Papp
Procedure, shortened: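 Transport run in both directions with either HBSS/20 mM HEPES pH 7.4 or human plasma in apical and basolateral chambers, 0.1% v/v DMSO in donor. Donor and acceptor samples quantified by LC–MS; Papp and mass balance calculated, with plasma Papp corrected for donor fraction unbound. Efflux ratio = mean B–A/A–B Papp.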

physchem = settings: for An (absorption number): Peff × tres/R, minimum 1; for Ssi (estimated solubility in the small intestine): based on measured FaSSIF solubility; for Permeability classification: based on ref 80 and control compounds; for Predicted human Peff: from Caco-2 Papp via calibration plot
Excerpt: Predicted Peff values were obtained from a calibration plot of literature Peff values vs measured Caco-2 Papp using either buffer or plasma as the transport medium (see Results section).

[1] = Blood to plasma partitioning; format: in vitro ADME, human; settings: human whole blood, 37 °C
Description: Human whole blood was collected and supplied by the Volunteer Blood Donor Registry (Clinical Translation Centre, Walter & Eliza Hall Institute of Medical Research, Parkville, Australia) and used on the day of collection. The haematocrit (Hct) was determined by centrifugation (13,000×g for 3 min using Clemets® Microhaematocrit centrifuge and Safecap® Plain Self-sealing Mylar wrapped capillary tubes) to ensure it was between 0.40 and 0.48. An aliquot was centrifuged (Heraeus, Multifuge 3 S-R; 4500×g) for 10 min to obtain plasma required for matrix matching purposes as described below.
Two aliquots of the spiked whole blood were transferred to fresh microcentrifuge tubes and maintained at 37 °C/5% CO2 in a humidified incubator. The pH was confirmed to be 7.4 ± 0.1 at the start and end of the incubation. At each time point (30 min and 4 h), one whole blood tube was removed from the incubator and mixed by gentle inversion, after which four replicate blood samples were taken and matrix matched with an equal volume of blank plasma. The remainder of the blood sample was centrifuged (Eppendorf, Mini Spin plus; 6700×g) for 2 min for the collection of 4 replicate plasma samples which were similarly matrix matched with an equal volume of blank whole blood. The 1:1 mixtures of blood/plasma were mixed, snap frozen in dry ice and stored at − 80 °C until analysis by LC–MS (Additional file 1: Table S2) against calibration standards prepared in the same mixed matrix. Any further distribution of compound into RBCs at this stage was irrelevant as the cells were lysed during the sample preparation and the total concentration in the mixed matrix was measured for both the calibration standards and samples.
The apparent whole blood-to-plasma partitioning ratio (B/P) was calculated as the ratio of the average concentration in the blood sample to that in the plasma fraction of the same whole blood sample. A standard deviation (SD) for each B/P value was calculated using the propagation of errors approach as described previously.

CYP1A2 = biological target: T1, CYP1A2 (Homo sapiens, UniProt P05177); experiment: in vitro; settings: microsomes
T1 sequence (P05177 1-516): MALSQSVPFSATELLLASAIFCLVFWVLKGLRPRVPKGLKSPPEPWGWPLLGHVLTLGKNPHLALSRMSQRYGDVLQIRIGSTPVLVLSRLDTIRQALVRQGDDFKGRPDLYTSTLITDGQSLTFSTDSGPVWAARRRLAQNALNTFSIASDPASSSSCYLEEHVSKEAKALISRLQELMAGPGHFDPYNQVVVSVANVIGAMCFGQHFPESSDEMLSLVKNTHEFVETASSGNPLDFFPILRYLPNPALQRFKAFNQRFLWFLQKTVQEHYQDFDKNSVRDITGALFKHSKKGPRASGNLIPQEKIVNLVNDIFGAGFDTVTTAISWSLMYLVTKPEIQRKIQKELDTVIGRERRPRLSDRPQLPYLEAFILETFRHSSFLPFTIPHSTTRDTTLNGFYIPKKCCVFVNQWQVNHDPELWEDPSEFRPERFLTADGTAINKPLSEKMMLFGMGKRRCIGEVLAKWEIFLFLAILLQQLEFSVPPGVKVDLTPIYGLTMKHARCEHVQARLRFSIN
Procedure, shortened: (§1)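 Human liver microsomes were incubated with an isoform-specific probe substrate, and formation of the CYP-mediated metabolite was measured by LC–MS after quenching in ice-cold acetonitrile with diazepam as internal standard. Inhibition was expressed as percent reduction in metabolite formation versus an uninhibited control.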

CYP2C19 = CYP2C19 (Homo sapiens, UniProt P33261); experiment: in vitro; settings: microsomes
Sequence of CYP2C19 (P33261 whole entry): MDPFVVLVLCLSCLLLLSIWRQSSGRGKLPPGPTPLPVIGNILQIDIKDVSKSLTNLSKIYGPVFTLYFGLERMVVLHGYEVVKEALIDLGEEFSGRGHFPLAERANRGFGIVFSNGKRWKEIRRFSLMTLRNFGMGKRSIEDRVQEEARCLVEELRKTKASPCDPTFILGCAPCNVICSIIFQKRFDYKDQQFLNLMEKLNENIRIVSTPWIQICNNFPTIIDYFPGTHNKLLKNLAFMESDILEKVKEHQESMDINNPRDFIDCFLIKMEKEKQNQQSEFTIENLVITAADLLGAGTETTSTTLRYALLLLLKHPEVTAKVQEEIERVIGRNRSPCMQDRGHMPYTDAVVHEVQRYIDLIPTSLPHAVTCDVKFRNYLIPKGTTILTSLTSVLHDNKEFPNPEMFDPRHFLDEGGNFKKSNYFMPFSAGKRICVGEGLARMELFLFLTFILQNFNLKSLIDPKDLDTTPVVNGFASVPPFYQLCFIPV
Procedure, shortened: as §1

CYP2C9 = CYP2C9 (Homo sapiens, UniProt P11712); experiment: in vitro; settings: microsomes
Sequence of CYP2C9 (P11712 whole entry): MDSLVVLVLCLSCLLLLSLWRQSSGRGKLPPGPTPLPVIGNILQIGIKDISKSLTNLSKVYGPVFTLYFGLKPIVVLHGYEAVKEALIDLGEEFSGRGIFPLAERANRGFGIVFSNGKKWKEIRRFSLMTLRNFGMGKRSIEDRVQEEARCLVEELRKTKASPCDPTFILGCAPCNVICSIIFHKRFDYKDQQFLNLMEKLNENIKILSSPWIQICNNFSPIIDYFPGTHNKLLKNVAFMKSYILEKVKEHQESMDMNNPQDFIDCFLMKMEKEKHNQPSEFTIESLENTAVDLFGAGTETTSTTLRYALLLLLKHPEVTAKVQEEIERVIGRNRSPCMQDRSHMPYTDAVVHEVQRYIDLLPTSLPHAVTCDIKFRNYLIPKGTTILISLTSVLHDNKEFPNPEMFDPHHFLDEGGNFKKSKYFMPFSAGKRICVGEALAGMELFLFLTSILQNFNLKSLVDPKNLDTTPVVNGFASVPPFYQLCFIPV
Procedure, shortened: as §1

CYP3A4 = CYP3A4 (Homo sapiens, UniProt P08684); experiment: in vitro; settings: microsomes
Sequence of CYP3A4 (P08684 whole entry): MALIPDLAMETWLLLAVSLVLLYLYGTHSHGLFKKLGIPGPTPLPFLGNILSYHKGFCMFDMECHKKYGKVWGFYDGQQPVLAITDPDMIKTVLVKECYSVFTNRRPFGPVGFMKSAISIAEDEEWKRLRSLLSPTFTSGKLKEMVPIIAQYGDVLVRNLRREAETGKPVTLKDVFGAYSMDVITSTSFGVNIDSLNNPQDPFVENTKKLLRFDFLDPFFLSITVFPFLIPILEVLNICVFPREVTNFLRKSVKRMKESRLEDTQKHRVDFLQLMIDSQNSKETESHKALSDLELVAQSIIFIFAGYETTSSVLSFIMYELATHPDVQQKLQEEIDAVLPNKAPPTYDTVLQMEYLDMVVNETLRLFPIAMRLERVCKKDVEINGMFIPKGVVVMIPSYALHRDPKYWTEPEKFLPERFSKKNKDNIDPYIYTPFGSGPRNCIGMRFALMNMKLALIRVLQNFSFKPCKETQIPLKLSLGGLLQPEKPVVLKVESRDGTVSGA
Procedure, shortened: as §1

human plasma = settings: methods UF, ED, EP or not described per compound, ref [6]–[22] of Additional file 1; cited from earlier work
[2] = matrix: human plasma, corrected for fu

SLAD (physchem)	An (absorption number) (physchem)	Ssi (estimated solubility in the small intestine) (physchem)	Permeability classification (physchem)	Predicted human Peff (physchem)	B/P (whole blood to plasma partitioning ratio) [1]	CYP1A2 % inhibition at max conc (CYP1A2)	IC50 (CYP1A2)	CYP2C19 % inhibition at max conc (CYP2C19)	IC50 (CYP2C19)	CYP2C9 % inhibition at max conc (CYP2C9)	IC50 (CYP2C9)	CYP3A4 (midaz) % inhibition at max conc (CYP3A4)	CYP3A4 (test) % inhibition at max conc (CYP3A4)	IC50 (CYP3A4)	Structure (SMILES)	A–B Papp (Caco-2 cell monolayers; [2])	B–A Papp (Caco-2 cell monolayers; [2])	Literature fu (human plasma)	other results
51 mg	13	7.60 µg/mL	High (> 85% absorption (high))	11 10^−4 cm/s	0.54 ± 0.04	nmi	> 20 µM	nmi	> 20 µM	nmi	> 20 µM	nmi	nmi	> 20 µM	CC(C)(C)NCc1cc(C(C)(C)C)cc(-c2cnc(C(F)(F)F)c(F)c2)c1O [JPC3210]	> 300 10^−6 cm/s	> 300 10^−6 cm/s	0.024	–
> 6050 mg	4.0	> 3000 µg/mL	High (> 85% absorption (high))	3.4 10^−4 cm/s	1.3 ± 0.02	nmi	> 20 µM	nmi	> 20 µM	nmi	> 20 µM	nmi	nmi	> 20 µM	O=C(NCCN1CCCC1)c1cc(-c2ccc(CN3CCOCC3)cc2)nc2ccc(F)cc12 [M5717]	–	–	0.23	A–B Papp (Caco-2 cell monolayers; matrix: pH 7.4 buffer): 34 ± 2.6 10^−6 cm/s; B–A Papp (Caco-2 cell monolayers; matrix: pH 7.4 buffer): 39 ± 7.6 10^−6 cm/s; efflux ratio (Caco-2 cell monolayers; matrix: pH 7.4 buffer): 1.1

Structure (SMILES)	SLAD (physchem)	An (absorption number) (physchem)	Ssi (estimated solubility in the small intestine) (physchem)	Permeability classification (physchem)	Predicted human Peff (physchem)	B/P (whole blood to plasma partitioning ratio) [1]	CYP1A2 % inhibition at max conc (CYP1A2)	IC50 (CYP1A2)	CYP2C19 % inhibition at max conc (CYP2C19)	IC50 (CYP2C19)	CYP2C9 % inhibition at max conc (CYP2C9)	IC50 (CYP2C9)	CYP3A4 (midaz) % inhibition at max conc (CYP3A4)	CYP3A4 (test) % inhibition at max conc (CYP3A4)	IC50 (CYP3A4)	A–B Papp (Caco-2 cell monolayers; [2])	B–A Papp (Caco-2 cell monolayers; [2])	Literature fu (human plasma)	other results
CCN(CC)CCCNc1ccnc2cc(Cl)ccc12.Cl.Cl [AQ-13]	> 2250 mg	2.2	> 2000 µg/mL	High (> 85% absorption (high))	1.9 10^−4 cm/s	3.15 ± 0.20	nmi	> 20 µM	nmi	> 20 µM	nmi	> 20 µM	nmi	nmi	> 20 µM	25 ± 2.3 10^−6 cm/s	32 ± 0.8 10^−6 cm/s	0.45	efflux ratio (Caco-2 cell monolayers; matrix: human plasma): 1.2
